9 compounds from patent US3998963A, “Tertiary butyl substituted carbamoyl oxime pesticides” (priority 1975, dated 1976) can be followed below.

Common to all, as to type: in vivo
The test system of test [1] is bean aphid (Aphis fabae Scop.). Description: Bean Aphid Foliage Spray Test. As to conditions: foliar, 24 hour holding period, read-out: Insect LD50, Aphid. The method, then:
(§1) Suspensions of the test compouns were prepared by dissolving one gram of compound in 50 milliliters of acetone in which had been dissolved 0.1 gram (10 percent of the weight of compound) of an alkylphenoxy polyethoxyethanol surfactant, as an emulsifying or dispersing agent. The resulting solution was mixed into 150 milliliters of water to give roughly 200 milliliters of a suspension containing the compound in finely divided form. The thus-prepared stock suspension contained 0.5 percent by weight of compound. The test concentrations in parts per million by weight employed in the tests described hereinbelow were obtained by appropriate dilutions of the stock suspension with water. The test procedures were as follows:
Bean Aphid Foliage Spray Test
Adults and nymphal stages of the bean aphid (Aphis fabae Scop.) reared on potted dwarf nasturtium plants at 65°-70° F. and 50-70 per cent relative humidity, constituted the test insects. For testing purposes, the number of aphids per pot was standardized to 100-150 by trimming plants containing excess aphids.
The test compounds were formulated by diluting the stock suspension with water to give a suspension containing 500 parts of test compound per million parts of final formulation.
The potted plants (one pot per compound tested) infested with 100-150 aphids, were placed on a revolving turntable and sprayed with 100 -110 milliliters of test compound formulation by use of a DeVilbiss spray gun set at 40 psig. air pressure. This application, which lasted 25 seconds, was sufficient to wet the plants to run-off. As a control, 100-110 milliliters of a water-acetone-emulsifier solution containing no test compound were also sprayed on infested plants. After spraying, the pots were placed on their sides on a sheet of white standard mimeograph paper which had peen previously ruled to facilitate counting. Temperature and humidity in the test room during the 24 hour holding period were 65°-70° F. and 50-70 per cent, respectively. Aphids which fell onto the paper and were unable to remain standing after being uprighted were considered dead. Aphids remaining on the plants were observed closely for movement and those which were unable to move the length of the body upon stimulation by prodding were considered dead. Per cent mortality was recorded for various concentration levels.

Test [2] has as its system southern armyworm (Spodoptera eridania, (Cram.)). Description: Southern Armyworm Leaf Spray Bait Test. Particulars: for LC50: Spodoptera eridania, 72 h, leaf spray bait, 3 days, read-out: Insect LD50, Armyworm; for (b) relative efficacy of derivative vs parent compound, Armyworm: bait, formula of footnote b is drawing 8. On the procedure: as §1
Southern Armyworm Leaf Spray Bait Test
Larvae of the southern armyworm (Spodoptera eridania, (Cram.)), reared on Tendergreen bean plants at a temperature of 80°±5° F. and a relative humidity of 50±5 per cent, constituted the test insects.
The test compounds were formulated by diluting the stock suspension with water to give a suspension containing 500 parts of test compound per million parts of final formulation. Potted Tendergreen bean plants of standard height and age were placed on a revolving turntable and sprayed with 100-110 milliliters of test compound formulation by use of a DeVilbiss spray gun set at 10 psig air pressure. This application, which lasted 25 seconds, was sufficient to wet plants to run-off. As a control, 100-110 milliliters of a water-acetone-emulsifier solution containing no test compound were also sprayed on infested plants. When dry, the paired leaves were separated and each one was placed in a 9 centimeter Petri dish lined with moistened filter paper. Five randomly selected larvae were introduced into each dish and the dishes were closed. The closed dishes were labeled and held at 80°-85° F. for 3 days. Although the larvae could easily consume the whole leaf within 24 hours, no more food was added. Larvae which were unable to move the length of the body, even upon stimulation by prodding, were considered dead. Per cent mortality was recorded for various concentration levels.
(§2) In Table 1 are presented insect and rat toxicity data (bait tests) on a comparative basis of the compounds described above. […] Rat toxicity is also more meaningfully compared on the basis of molar weight LD50 values. The relative efficacy of the parent compounds as compared to the previously known derivatives and as compared to the new compounds of this invention is also shown in Table 1. The ratio of efficacy as contact poisons (immersion/bait) of the compounds tested against Armyworm and House Fly is presented in Table 2 along with the results of the phytotoxicity tests of the compounds on bean, corn, tomato and cotton.

The test system of test [3] is house flies (Musca domestica, L.). Description: Fly Bait Test. As to conditions: for LC50: Musca domestica, 24 hours, read-out: Insect LD50, Housefly; for (b) relative efficacy of derivative vs parent compound, Housefly: formula of footnote b is drawing 8. The method, then:
as §1
Four to six day old adult house flies (Musca domestica, L.), reared according to the specifications of the Chemical Specialities Manufacturing Association (Blue Book, McNair-Dorland Co., N.Y. 1954; pages 243-244, 261) under controlled conditions of 80°±5° F. and 50±5 per cent relative humidity, were the test insects. The flies were immobilized by anesthetizing with carbon dioxide and twenty five immobilized individuals, males and females, were transferred to a cage consisting of a standard food strainer about five inches in diameter which was inverted over a wrapping-paper covered surface. The test compounds were formulated by diluting the stock suspension with a 10 per cent (by weight) sugar solution to give a suspension containing 500 parts of test compound per million parts of final formulation, by weight. Ten milliliters of the test formulation were added to a souffle cup containing a 1-inch square of an absorbent cotton pad. This bait cup was introduced and centered on the blotting paper under the food strainer prior to admitting the anesthetized flies. The caged flies were allowed to feed on the bait for 24 hours, at a temperature of 80°±5° F. and the relative humidity of 50±5 per cent.
as §2

Test [4] deals with southern armyworm (Spodoptera eridania, (Cram.)). Description: Armyworm Immersion Test. As to conditions: for LC50: Spodoptera eridania, 72 h, immersion (contact), 3 days, read-out: Imm LD50, Armyworm; for contact vs stomach poison, army worm (in words): immersion vs bait; for (Imm/Bait), Armyworm: ratio immersion/bait LD50. On the procedure: as §1
The test organism used was the fourth instar larvae of the southern armyworm (Spodoptera eridania, (Cram.)) reared on Tendergreen beans in a room where temperature was held at 80° ± 5° F. and relaitve humidity 50 ± 5 percent.
Ten randomly selected larvae were thoroughly wetted in a formulated mixture of the chemical (50 ml) by pouring the insects and formulation from one beaker to another six times. Excess liquid was removed by transferring the larvae to paper towels. An equivalent amount of a water solution containing acetone and emulsifier in the same concentrations as the insecticidal mixture but without the candidate insecticide was applied in the same manner as a controls for the experiment. When dry, 5 larvae were placed in each of two 9-cm Petri dishes lined with filter paper and containing one fully expanded Tendergreen bean leaf per dish as food.
The closed dishes were held at 80°-85° F. for 3 days. Although the larvae can easily consume the whole leaf within 24 hours, no more food was added. Check larvae remained vigorous during the entire holding period. At the end of the holding period larvae which were unable to move the length of the body, even upon stimulation, were considered dead.
as §2

Converted amounts (≈) assume the structure as drawn.

For the compound `CNC(=O)ON=C(C)SC` [Compound 1, O-(methylcarbamoyl) S-methyl acetothiolhydroximate], the LC50 in test [1] came to 4 µg/mL (≈ 24.7 µM); in test [2] it was 11 µg/mL (≈ 67.8 µM); in test [3] it was 4 µg/mL (≈ 24.7 µM); in test [4], 8 µg/mL (≈ 49.3 µM). For the same compound, the “contact vs stomach poison, army worm (in words)” value (from here on “contact vs stomach poison”) in test [4] is recorded as “significantly more toxic as stomach poisons than as contact poisons”. Further, the “(Imm/Bait), Armyworm” value in test [4] is listed as 2.

Regarding `CNC(=O)ON=C(C)SC(C)C` [Compound 2], the LC50 in test [1] is 25 µg/mL (≈ 131 µM); in test [2] it was 17 µg/mL (≈ 89.3 µM); in test [3], 11 µg/mL (≈ 57.8 µM); in test [4], 53 µg/mL (≈ 279 µM). In test [4], the “contact vs stomach poison” value is recorded as “significantly more toxic as stomach poisons than as contact poisons”. Moreover, in test [4], the “(Imm/Bait), Armyworm” value is 3.1.

Regarding `CCSC(C)=NOC(=O)NC` [Compound 3], the LC50 in test [1] came out at 12 µg/mL (≈ 68.1 µM); in test [2], 11 µg/mL (≈ 62.4 µM); in test [3], 3 µg/mL (≈ 17 µM).

Turning to `CSC(C)=NOC(=O)N(C)Sc1ccc(Cl)cc1` [Compound 4], the LC50 in test [1] was determined as 2 µg/mL (≈ 6.56 µM); in test [2], 10 µg/mL (≈ 32.8 µM); in test [3], 8 µg/mL (≈ 26.2 µM); in test [4] it was 47 µg/mL (≈ 154 µM). The “(b) relative efficacy of derivative vs parent compound, Armyworm” value (from here on “(b) relative efficacy … Armyworm”) in test [2] was 2.1. In addition, the “(Imm/Bait), Armyworm” value in test [4] was 0.47.

As for `CC(=NOC(=O)N(C)Sc1ccc(Cl)cc1)SC(C)C` [Compound 5], in test [1], the LC50 came out at 3 µg/mL (≈ 9.01 µM). In addition, in test [2], the LC50 stood at 30 µg/mL (≈ 90.1 µM) and the “(b) relative efficacy … Armyworm” value came to 1.0. Moreover, in test [3], the LC50 amounted to 50 µg/mL (≈ 150 µM) and the “(b) relative efficacy of derivative vs parent compound, Housefly” value (from here on “(b) relative efficacy … Housefly”) worked out at 0.4. In test [4], the LC50 came out at 4.5 µg/mL (≈ 13.5 µM) and the “(Imm/Bait), Armyworm” value is 0.15.

For the compound `CSC(C)=NOC(=O)N(C)Sc1ccc(C)cc1` [Compound 6], the LC50 was determined as 5 µg/mL (≈ 17.6 µM) in test [1], 6 µg/mL (≈ 21.1 µM) in test [2], 2 µg/mL (≈ 7.03 µM) in test [3] and 10 µg/mL (≈ 35.2 µM) in test [4]. Further, the “(b) relative efficacy … Armyworm” value in test [2] was 3.2. Moreover, the “(Imm/Bait), Armyworm” value in test [4] was 1.7.

Regarding `CC(=NOC(=O)N(C)Sc1ccc(C)cc1)SC(C)C` [Compound 7], the LC50 in test [1] was 5 µg/mL (≈ 16 µM); in test [2] it was 12 µg/mL (≈ 38.4 µM); in test [3], 50 µg/mL (≈ 160 µM); in test [4], 14.4 µg/mL (≈ 46.1 µM). The “(b) relative efficacy … Armyworm” value in test [2] came to 2.3. In test [3], the “(b) relative efficacy … Housefly” value is 0.38. Besides, in test [4], the “(Imm/Bait), Armyworm” value is given as 1.2.

Take `CSC(C)=NOC(=O)N(C)Sc1ccc(C(C)(C)C)cc1` [Compound 8, O-[N-Methyl-N-[4-(t-butylphenyl)sulfenyl]carbamoyl] S-Methyl Acetothiolhydroximate]: the LC50 in test [1] turned out to be 2.5 µg/mL (≈ 7.66 µM). In addition, in test [2], the LC50 was determined as 4 µg/mL (≈ 12.3 µM) and the “(b) relative efficacy … Armyworm” value was determined as 5.7. For the same compound, in test [3], the LC50 stood at 17 µg/mL (≈ 52.1 µM) and the “(b) relative efficacy … Housefly” value came to 0.4. Besides, in test [4], the LC50 is 4 µg/mL (≈ 12.3 µM); the “contact vs stomach poison” value is “outstanding contact poison”; the “(Imm/Bait), Armyworm” value amounted to 1.

Regarding `CC(=NOC(=O)N(C)Sc1ccc(C(C)(C)C)cc1)SC(C)C` [Compound 9, O-[N-Methyl-N-[4-(t-Butylphenyl)sulfenyl]carbamoyl] S-Isopropyl Thiolacetohydroximate], the LC50 in test [1] came out at 9 µg/mL (≈ 25.4 µM). Moreover, in test [2], the LC50 turned out to be 19 µg/mL (≈ 53.6 µM) and the “(b) relative efficacy … Armyworm” value was found to be 1.6. In test [3], the LC50 stood at 50 µg/mL (≈ 141 µM) and the “(b) relative efficacy … Housefly” value stood at 0.43. Besides, in test [4], the LC50 stood at 5 µg/mL (≈ 14.1 µM) and the “(Imm/Bait), Armyworm” value was 0.25.
